Results taken from PubChem BioAssay AID248 (DTP/NCI, 2004).
Inconclusive results and toxic doses are left out. No stated cut-off is given here; in the data, active means T/C of 150% or more; inactive means T/C below 125%.

Test system: L1210 leukemia ip in BDF1 mice, survival T/C
Experiment: NCI In Vivo Anticancer Drug Screen. Data for tumor model L1210 Leukemia (intraperitoneal) in B6D2F1 (BDF1) mice
Conditions: endpoint: mean survival time, higher = longer survival
How it was run: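 Antitumor effect is assessed in tumor-bearing animals. Survival in the compound arm is compared with a vehicle-dosed control arm and expressed as their quotient.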

Measured: T/C

N#CC1(C#N)OC12CCS(=O)(=O)c1ccccc12 (stereo unspecified)
inactive: dose: 100.0 mg/kg/injection, schedule: Q01DX001 (ip), vehicle: saline 88 % of control | dose: 200.0 mg/kg/injection, schedule: Q01DX001 (ip), vehicle: saline 95 % of control | dose: 400.0 mg/kg/injection, schedule: Q01DX001 (ip), vehicle: saline 101 % of control

COC(CC(=O)N1Cc2cc3ccccc3nc2/C1=C/c1ccco1)OC
inactive: dose: 100.0 mg/kg/injection, schedule: Q04DX003 (ip), vehicle: saline with Tween-80 104 % of control | dose: 200.0 mg/kg/injection, schedule: Q04DX003 (ip), vehicle: saline with Tween-80 96 % of control | dose: 400.0 mg/kg/injection, schedule: Q04DX003 (ip), vehicle: saline with Tween-80 98 % of control
